Laboratory results as given in US10117430B2, “Malononitrile compounds for controlling animal pests” (BASF SE, priority 2012, dated 2018).

What was measured:
Format in all cases: in vivo
[1] = system: Yellow Fever Mosquito (Aedes aegypti); assay: whole plant or invertebrate; conditions: 48 h, in comparison with untreated controls, larval mortality after 2 days
Procedure, shortened: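 Freshly hatched larvae (5-15 per well) in 200 μl tap water; compounds formulated in 75% water/25% DMSO and sprayed at 2.5 μl per well at several concentrations, two replicates. Incubated 2 days at 28±1° C., 80±5% RH; larval mortality scored visually.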

[2] = system: Mediterranean Fruitfly (Ceratitis capitata); assay: B.2 Mediterranean fruitfly microtiter diet test, egg and larval mortality; conditions: 120 h, in comparison with untreated controls, egg and larval mortality after 5 days
Procedure, shortened: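 Microtiter plates held insect diet with 50-80 C. capitata eggs; compounds in 75% water/25% DMSO were sprayed onto the diet at various concentrations, two replicates. Plates kept about 5 days at 28±1 °C and 80±5% RH, then egg and larval mortality scored visually.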

[3] = system: Orchid Thrips (Dichromothrips corbetti); assay: B.4 Orchid thrips floral-immersion test; conditions: 96 h, in comparison with untreated controls, after 4 days
Procedure, shortened: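 Orchid flowers dipped in 300 ppm compound (acetone:water 1:1, 0.01% surfactant), dried, then caged with 10-15 adult D. corbetti from a lab colony. Held under continuous light at about 28° C. Live thrips counted after 4 days; mortality extrapolated from pre-treatment numbers.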

N#CC(C#N)(Cc1ccc(C(F)(F)F)nc1)c1cc(F)cc(F)c1 [II-34]
≥ 75%: mortality at 2500 ppm [1] | mortality at 2500 ppm [2] | mortality at 500 ppm [3]
